Where two headings read alike, the source gives them in different places.
Key:
[1] = Dog PK study: zoledronic acid in serum after IV or oral capsule dosing, enteric or non-enteric coated, with or without excess coformer (LC/MS/MS); type: in vivo, Beagle dogs; settings: beagle
Text: This can be attributed to the fact that both animals have historically been used in the safety evaluation and PK screening studies and are recommended by appropriate regulatory agencies. […] Additional tests included ID administration in rats and administration of enteric coated capsules in dogs.
USA. Some animals have surgical catheters (jugular vein and intraduodenum) were implanted to the animals prior to the studies. Beagle dogs from Marshall Farms, N.Y., USA, weighing from (9-12 kg) were used in the studies presented herein. Surgical catheters (jugular vein) were implanted prior to the studies.
The dose volume of each dog was adjusted based upon the average weight of the dog. • ii. […]
Blood samples were placed without the use of an anticoagulant and allowed to sit at room temperature for approximately 30 minutes. Samples were then centrifuged at a temperature of 4° C., at a speed of 13,000 rpm, for 5 minutes. Serum was collected and split into two aliquots and stored frozen (−80° C.) until analysis.
In this study, capsules of particulate materials (zoledronic:DL-lysine:water complex and excess pure DL-lysine).

[2] = Dog urine excretion: quantity of zoledronic acid in urine over collection intervals (LC/MS/MS); type: in vivo, Beagle dogs; settings: Leg 38, 0.12 mg/kg IV, saline solution
[3] = according to FDA Summary Basis of Approval; cited from earlier work
[4] = cited from earlier work
[5] = in vivo; cited from earlier work
[6] = iv, 0.12 mg/kg, Leg 38, 0.12 mg/kg IV, saline solution, read-out: Average serum concentration of 4 dogs
[7] = iv, 0.183 mg/kg, Leg 13, 0.183 mg/kg IV, saline solution, read-out: Average serum concentration of 5 dogs
[8] = po, Leg 19, 61.3 mg with 322.9 mg DL-lysine monohydrate, gelatin capsule, PO, read-out: Average serum concentration of 5 dogs
[9] = po, Leg 24, 64.0 mg with 374.8 mg L-lysine HCl, gelatin capsule, PO, read-out: Average serum concentration of 5 dogs

O=P(O)(O)C(O)(Cn1ccnc1)P(=O)(O)O [Zoledronic acid, (1-hydroxy-2-imidazol-1-yl-1-phosphono-ethyl)phosphonic acid]
concentration at 1 h [1, 6]: 174 ng/mL
concentration at 1.25 h [1, 6]: 121 ng/mL
concentration at 1.5 h [1, 6]: 90.6 ng/mL
concentration at 2 h [1, 6]: 55.7 ng/mL
concentration at 4 h [1, 6]: 15.1 ng/mL
concentration at 8 h [1, 6]: 5.74 ng/mL
concentration at 24 h [1, 6]: 2.49 ng/mL
concentration at 0 h [1, 7]: 0.64 ng/mL
concentration at 5 min [1, 7]: 477 ng/mL
concentration at 10 min [1, 7]: 756 ng/mL
concentration at 0.25 h [1, 7]: 1060 ng/mL
concentration at 20 min ([1]; iv, 0.183 mg/kg, Leg 13, 0.183 mg/kg IV, saline solution, 20 min, read-out: Average serum concentration of 5 dogs): 746 ng/mL
concentration at 25 min ([1]; iv, 0.183 mg/kg, Leg 13, 0.183 mg/kg IV, saline solution, 25 min, read-out: Average serum concentration of 5 dogs): 629 ng/mL
concentration at 0.5 h [1, 7]: 523 ng/mL
concentration at 0.75 h [1, 7]: 343 ng/mL
concentration at 1 h [1, 7]: 245 ng/mL
concentration at 1.25 h [1, 7]: 183 ng/mL
concentration at 1.5 h [1, 7]: 140 ng/mL
concentration at 2 h [1, 7]: 80.9 ng/mL
concentration at 4 h [1, 7]: 23.4 ng/mL
concentration at 8 h [1, 7]: 8.78 ng/mL
concentration at 24 h [1, 7]: 3.84 ng/mL
concentration at 0 h [1, 8]: 0 ng/mL
concentration at 5 min [1, 8]: 34.1 ng/mL
concentration at 10 min [1, 8]: 42.7 ng/mL
concentration at 0.25 h [1, 8]: 220 ng/mL
concentration at 0.5 h [1, 8]: 659 ng/mL
concentration at 0.75 h [1, 8]: 479 ng/mL
concentration at 1 h [1, 8]: 384 ng/mL
concentration at 1.5 h [1, 8]: 210 ng/mL
concentration at 2 h [1, 8]: 136 ng/mL
concentration at 4 h [1, 8]: 34.2 ng/mL
concentration at 8 h [1, 8]: 8.53 ng/mL
concentration at 24 h [1, 8]: 2.07 ng/mL
concentration at 0 h [1, 9]: 0 ng/mL
concentration at 5 min [1, 9]: 0 ng/mL
concentration at 10 min [1, 9]: 1.2 ng/mL
concentration at 0.25 h [1, 9]: 14.1 ng/mL
concentration at 0.5 h [1, 9]: 172 ng/mL
concentration at 0.75 h [1, 9]: 340 ng/mL
concentration at 1 h [1, 9]: 283 ng/mL
concentration at 1.5 h [1, 9]: 163 ng/mL
concentration at 2 h [1, 9]: 100 ng/mL
concentration at 4 h [1, 9]: 26.3 ng/mL
concentration at 8 h [1, 9]: 4.56 ng/mL
concentration at 24 h [1, 9]: 0.89 ng/mL
Average quantity of zoledronic acid in urine excretion of 4 dogs ([2]; interval 0-4 h): 242050 ng
Average quantity of zoledronic acid in urine excretion of 4 dogs ([2]; interval 4-8 h): 21165 ng
Average quantity of zoledronic acid in urine excretion of 4 dogs ([2]; interval 8-12 h): 10925 ng
Average quantity of zoledronic acid in urine excretion of 4 dogs ([2]; interval 12-24 h): 43700 ng
Average quantity of zoledronic acid in urine excretion of 4 dogs ([2]; interval 24-96 h): 263151 ng
oral bioavailability [3]: approximately 1%
solubility ([4]; in 0.1 N HCl solution): sparingly soluble
solubility ([4]; in 0.1 N NaOH): freely soluble
solubility ([4]; in various organic solvents): practically insoluble
solubility ([4]; in water): sparingly soluble
gastric and intestinal irritations [5]: severe gastric and intestinal irritations

From patent US9169279B2, “Crystallization method and bioavailability” (THAR PHARMACEUTICALS, INC., priority 2009, dated 2015)
